One block for each compound: values may come before it.
Key:
[1] = tested on: HCV replicon I389luc-ubi-neo/NS3-3′/ET in ET (Huh-lucubineo-ET) cell line; test: Replicon assay (luciferase reporter); assay type: cell-based; conditions: Hepatitis C virus, read-out: % inhibition of replication (luciferase)
Method: A cell line, ET (Huh-lucubineo-ET) was used for screening of compounds for inhibiting HCV RNA dependent RNA polymerase. The ET cell line was stably transfected with RNA transcripts harboring a I389luc-ubi-neo/NS3-3′/ET; replicon with firefly luciferase-ubiquitin-neomycin phosphotransferase fusion protein and EMCV-IRES driven NS3-5B polyprotein containing the cell culture adaptive mutations (E1202G; T1280I; K1846T) (Krieger at al, 2001 and unpublished). The ET cells were grown in DMEM, supplemented with 10% fetal calf serum, 2 mM Glutamine, Penicillin (100 IU/mL)/Streptomycin (100 μg/mL), 1× nonessential amino acids, and 250 μg/mL G418 (“Geneticin”). They were all available through Life Technologies (Bethesda, Md.). The cells were plated at 0.5-1.0×10^4 cells/well in the 96 well plates and incubated for 24 hrs before adding test compound. […] Luciferase activity was measured 48-72 hours later by adding a lysis buffer and the substrate (Catalog number Glo-lysis buffer E2661 and Bright-Glo luciferase system E2620 Promega, Madison, Wis.). […] Under the same condition, cytotoxicity of the compounds was determined using cell proliferation reagent, WST-1 (Roche, Germany). […] IC50 and TC50 values were calculated by fitting % inhibition at each concentration to the following equation: % inhibition=100%/[(IC50/[I])^b+1] where b is Hill's coefficient. […]

[2] = molecular target: T1, HCV-NS5b (Hepatitis C virus genotype 1b, UniProt Q9WMX2); test: HCV-NS5b enzyme assay; assay type: biochemical; conditions: recombinant NS5b, 37° C., 2 hours, read-out: % inhibition of polymerase activity ([3H]-UTP incorporation)
T1 construct: The cloned fragment was missing the C terminus 21 amino acid residues; (His)6 (C); made in house; host or cells: XL-1 cells (E. coli)
Text: The coding sequence of NS5b protein was cloned by PCR from pFKI389luc/NS3-3′/ET as described by Lohmann, V., et al. (1999) Science 285, 110-113 using the primers shown on page 266 of WO 2005/012288.
The cloned fragment was missing the C terminus 21 amino acid residues. The cloned fragment was inserted into an IPTG-inducible expression plasmid that provides an epitope tag (His)6 at the carboxy terminus of the protein.
The recombinant enzyme was expressed in XL-1 cells and after induction of expression, the protein was purified using affinity chromatography on a nickel-NTA column. Storage condition was 10 mM Tris-HCl pH 7.5, 50 mM NaCl, 0.1 mM EDTA, 1 mM DTT, 20% glycerol at −20° C.
The polymerase activity was assayed by measuring incorporation of radiolabeled UTP into a RNA product using a biotinylated, heteropolymeric template, which includes a portion of the HCV genome. Typically, the assay mixture (34 μL) contains 10 mM Tris-HCl (pH 7.5), 5 mM MgCl2, 0.2 mM EDTA, 10 mM KCl, 1 unit/μL RNAsin, 1 mM DTT, 10 μM each of NTP, including [^3H]-UTP, and 10 ng/μL biotinylated heteropolymeric template. […] Incorporation of radioactivity was determined by scintillation counting (cpm). The % Inhibition at a particular concentration was determined using the following equation, % Inhibition=100−[100*(cpm with inhibitor−bg)/(cpm with no inhibitor−bg)] where bg was the background with no enzyme.

Compound: C#Cc1cn(C2OC(COP(=O)(NC(C)C(=O)OC)Oc3ccccc3)[C@@H](O)[C@@]2(C)F)c2ncnc(N)c12 (stereo partly drawn) [[4-Amino-5-ethynyl-7-(2-deoxy-2-fluoro-2-C-methyl-β-D-ribofuanosyl)-7H-pyrrolo[2,3-d]pyrimidine]5′-[Rp/Sp-Methoxyalaninylphenylphosphate]]
- inhibition at 12.5 µM [1]: 11%

- inhibition at 6 µM [2]: 95%
Compound: C#Cc1cn(C2OC(COP(=O)(O)OP(=O)(O)OP(=O)(O)O)[C@@H](O)[C@@]2(C)F)c2ncnc(N)c12 (stereo partly drawn) [[4-Amino-5-ethynyl-7-(2-deoxy-2-fluoro-2-C-methyl-β-D-ribofuanosyl)-7H-pyrrolo[2,3-d]pyrimidine]5′-triphosphate]

Compound: C#Cc1cn(C2OC(CO)[C@@H](O)[C@@]2(C)F)c2ncnc(N)c12 (stereo in doubt) [4-Amino-5-ethynyl-7-(2-deoxy-2-fluoro-2-C-methyl-β-D-ribofuanosyl)-7H-pyrrolo[2,3-d]pyrimidine]
- inhibition at 50 µM [1]: 60%

Reference: patent publication US7405204B2, “Nucleoside compounds for treating viral infections” (Genelabs Technologies, Inc., priority 2005, dated 2008)
